Patent publication US20250296960A1, “PEPTIDE COMPOSITIONS AND METHODS OF USE THEREOF” (priority 2022, published 2025)
Read-outs that look alike come from different tables or passages of the source. Numbered stars: 1 amine (or outer) side, 2 acyl side, 3 side chain; on linkers, the order of the positions; unused ones are H or OH. Square brackets hold non-standard residues; d marks the D form. Side chains are listed from the residue outwards. Ends that are not written are not given here. Peptide text beside a SMILES is read from it. * marks the point of attachment. C18 = C18 fatty acid (C16-C22 fatty acids conjugated via γGlu/8-amino-3,6-dioxaoctanoic acid spacers); Biotin = O=C1N[C@H]2[C@H](CS[C@H]2CCCCC(=O)*)N1; C18 diacid = O=C(O)CCCCCCCCCCCCCCCCC(=O)*; γGlu = O=C(O)[C@H](CCC(=O)[*:2])N[*:1]; biotin‑maleimide = B1-MAL; AEEA = NCCOCCOCC(=O)O; Aib = CC(C)(N)C(=O)O; MAL = maleimide

B1: Peptide No. 5C (peptide 5, C type: lipid at Lys12 and biotin at Cys40) (peptide)
peptide: H[Aib]QGTFTSDYSK([AEEA-AEEA-γGlu-C18])YLDYMMARDFVQWLIEGGPSSGAPPPSC(biotin‑maleimide)-NH2
B2: Peptide No. 5A (peptide 5, A type: lipid at Cys40) (peptide)
peptide: H[Aib]QGTFTSDYSKYLDYMMARDFVQWLIEGGPSSGAPPPSC([MAL-AEEA-AEEA-γGlu-C18])-NH2
B3: Peptide No. 5B (peptide 5, B type: lipid at Cys40 and biotin at Lys12) (peptide)
peptide: H[Aib]QGTFTSDYSK(Biotin)YLDYMMARDFVQWLIEGGPSSGAPPPSC([MAL-AEEA-AEEA-γGlu-C18])-NH2

Columns and labels:
FaSSIF/P = assay: In vitro enzymatic stability against FaSSIF/P (pancreatin in FaSSIF, pH 6.5); format: in vitro ADME
Method: (§1) This study was conducted to determine the enzymatic stability of SEQ ID NOs. 77, 86, 87, 89, 90, and 91 after biotinylation in artificial intestinal environment. The test samples were prepared by mixing stock solutions of peptide and pancreatin dissolved in FaSSIF solution (pH 6.5) in a weight ratio of 25:1. The test samples were incubated at 37° C. for 120 min. The sampling from test samples was proceeded at the predetermined time points (10, 30, 60, and 120 min) and stopped by 10% TFA solution.
(§2) Analytical HPLC was performed to determine the remaining amount on an ACQUITY Premier system (Waters, USA) with an ACQUITY CSH C18 column (Waters, USA) at 35° C. using 0.1% TFA in water and acetonitrile. The remaining amount was determined as a percentage of the peak area at the sampling time point relative to the peak area of the initial sample.
(§3) For the stability against FaSSIF/P, the test samples were prepared by mixing stock solutions of peptide and pancreatin dissolved in FaSSIF solution (pH 6.5) in a weight ratio of 19:1. The test samples were incubated at 37° C. for 120 min. The sampling from test samples was proceeded at the predetermined time points (10, 30, 60, and 120 min) and stopped by 10% TFA solution.

[1] = as above; format: in vitro ADME; conditions: simulated gi fluid
Method: as §1, §2, §3

[2] = Body weight loss in high fat diet (HFD) mice, 2 weeks; format: in vivo; conditions: 20 nmol/kg s.c. Q2D
Method: This study was conducted to confirm the body weight loss effect and select the peptides to be evaluated in high fat diet (HFD) treated mouse, which is widely used as experimental animal model in obesity and diabetes studies. SEQ ID NOs. The peptides were delivered at 0.02% PS80 in PBS and dosing volume was 10 mL/kg. Body weight changes, blood glucose, and food intake were monitored Q2D. Animals were fasted at least 4 hours prior to blood glucose measurement.

human GCGR = molecular target: T1, human GCGR (Homo sapiens, UniProt P47871); assay: cAMP assay (HitHunter cAMP) in GCGR-expressing CHO-K1 cells (GCGR+ cells); format: cell-based; conditions: Table 31
T1 construct: host or cells: CHO-K1
Procedure, shortened: (§4)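 Luminescent cAMP read-out: after 30 min peptide stimulation at 37 °C in cAMP assay buffer, receptor-expressing CHO-K1 cells (seeded 7×10^3/well the night before) received antibody and detection reagents for 1 h, then Solution A for 3 h, at room temperature in the dark.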

human GIPR = molecular target: T2, human GIPR (Homo sapiens, UniProt P48546); assay: cAMP assay (HitHunter cAMP) in GIPR-expressing CHO-K1 cells (GIPR+ cells); format: cell-based; conditions: Table 31
T2 construct: host or cells: CHO-K1
T2 sequence (P48546 22-466): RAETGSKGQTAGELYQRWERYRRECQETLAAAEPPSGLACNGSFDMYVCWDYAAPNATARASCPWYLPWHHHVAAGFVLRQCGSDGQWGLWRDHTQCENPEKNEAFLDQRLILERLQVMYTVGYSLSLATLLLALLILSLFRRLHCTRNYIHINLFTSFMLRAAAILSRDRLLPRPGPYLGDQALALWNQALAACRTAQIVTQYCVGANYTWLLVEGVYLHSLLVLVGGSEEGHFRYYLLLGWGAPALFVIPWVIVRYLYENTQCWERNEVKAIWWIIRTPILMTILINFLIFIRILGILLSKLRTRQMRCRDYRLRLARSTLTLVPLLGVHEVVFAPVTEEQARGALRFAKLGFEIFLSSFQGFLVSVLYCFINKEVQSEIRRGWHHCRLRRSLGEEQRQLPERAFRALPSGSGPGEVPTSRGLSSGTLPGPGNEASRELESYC
Procedure, shortened: as §4

[3] = In vivo efficacy in mAMLN (obese and NASH) mice, 4 weeks; conditions: after 4 weeks
[4] = Intestinal absorption / PK after intraduodenal administration of oral formulation in rats, serum LC-MS/MS; conditions: rat, in vivo
Method: This study was conducted to evaluate the intestinal absorption of peptides following enteral administration of oral pharmaceutical formulations. The pharmaceutical formulation was administered in a form of suspensions by intraduodenal (ID) injection in rats. SEQ ID_87, 89 and 90 was accurately weighed and dissolved in 10 mM PBS containing polysorbate 80 (pH 7.4, vehicle I). The mixture was vortexed for 5 min to get a clear solution. Then, 2.5 mL of vehicle was added to the mixture and vortexed for 30 min to get homogenous opaque suspension. The composition of Vehicle II was sodium chenodeoxycholate, and propyl gallate in polysorbate 80 in PBS. The animals were not fasted prior to dosing. 0.2˜ 0.4 mL of whole blood was taken from vein at each time point (0, 0.167, 0.5, 1, 2, 4, 8, 24, and 48 hrs after IV or ID administration). The collected whole blood was incubated at room temperature for 20 min and tubes were centrifugated at 13,000 rpm for 10 min at 4° C. The resulting serum 0.1˜ 0.2 mL was transferred into the tube and stored at −70° C. until analysis. The concentrations of peptides in serum were determined by LC-MS/MS analysis. PK parameters were analyzed by non-compartmental analysis using Phoenix WinNonlin 5.0.1. software (Pharsight Corporation, Mountain View, CA, USA).

human GLP-1R = molecular target: T3, human GLP-1R (Homo sapiens, UniProt P43220); assay: cAMP assay (HitHunter cAMP) in GLP-1R-expressing CHO-K1 cells (GLP-1R+ cells); format: cell-based; conditions: Table 31
T3 construct: host or cells: CHO-K1
Procedure, shortened: as §4

[5] = molecular target: T4, human glucose-dependent insulinotropic polypeptide receptor (GIPR), expressed on CHO-K1 cells (human, UniProt P48546 22-466); assay: cell-based or functional assay
T4 sequence (looked up): T2 sequence (P48546 22-466)

[6] = molecular target: T5, human glucagon receptor (GCGR), expressed on CHO-K1 cells (human, UniProt P47871 26-477); assay: cell-based or functional assay
[7] = molecular target: T6, human GLP-1 receptor (GLP-1R), expressed on CHO-K1 cells (human, UniProt P43220 24-463); assay: cell-based or functional assay
[8] = molecular target: T4, human glucose-dependent insulinotropic …; assay: cell-based or functional assay; remark: listed apart in the source
[9] = molecular target: T5, human glucagon receptor (GCGR), …; assay: cell-based or functional assay; remark: listed apart in the source
[10] = molecular target: T6, human GLP-1 receptor (GLP-1R), …; assay: cell-based or functional assay; remark: listed apart in the source

T3 sequence (P43220 24-463): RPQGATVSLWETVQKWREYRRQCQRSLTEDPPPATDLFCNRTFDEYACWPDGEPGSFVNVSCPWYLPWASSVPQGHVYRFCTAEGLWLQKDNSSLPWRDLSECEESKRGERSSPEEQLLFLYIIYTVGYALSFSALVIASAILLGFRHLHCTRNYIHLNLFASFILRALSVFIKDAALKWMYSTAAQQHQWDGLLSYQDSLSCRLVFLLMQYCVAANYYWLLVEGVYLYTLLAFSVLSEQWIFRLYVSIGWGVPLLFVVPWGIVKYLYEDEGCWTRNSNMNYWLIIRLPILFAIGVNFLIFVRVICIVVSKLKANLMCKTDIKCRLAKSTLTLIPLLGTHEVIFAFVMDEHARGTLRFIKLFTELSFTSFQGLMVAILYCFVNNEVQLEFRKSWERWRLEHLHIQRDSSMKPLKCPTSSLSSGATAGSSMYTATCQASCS
T5 sequence (P47871 26-477): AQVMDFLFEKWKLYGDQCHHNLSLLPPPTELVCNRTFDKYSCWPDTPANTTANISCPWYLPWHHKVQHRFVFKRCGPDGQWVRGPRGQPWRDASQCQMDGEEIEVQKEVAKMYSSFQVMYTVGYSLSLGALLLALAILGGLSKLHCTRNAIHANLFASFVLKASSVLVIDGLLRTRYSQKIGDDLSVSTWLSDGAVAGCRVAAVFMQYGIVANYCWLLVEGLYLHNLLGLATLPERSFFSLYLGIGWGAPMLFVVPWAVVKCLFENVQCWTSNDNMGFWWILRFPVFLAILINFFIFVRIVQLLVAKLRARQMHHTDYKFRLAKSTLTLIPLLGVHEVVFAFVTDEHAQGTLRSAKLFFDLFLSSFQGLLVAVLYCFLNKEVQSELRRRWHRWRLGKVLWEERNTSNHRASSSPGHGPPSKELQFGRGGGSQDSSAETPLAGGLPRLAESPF
T1 sequence (P47871 26-477): as above

| Molecule | body weight loss effect compared to SEQ ID NO. 77, in words [2] | Ratio vs. GLP-1R, GCGR (human GCGR) | Relative % to native ligand, GCGR (human GCGR) | Ratio vs. GLP-1R, GIPR (human GIPR) | Relative % to native ligand, GIPR (human GIPR) | Ratio vs. GLP-1R, GLP-1R (human GLP-1R) | Relative % to native ligand, GLP-1R (human GLP-1R) | EC50 (nM), cAMP assay [5] | EC50 (nM), cAMP assay [6] | EC50 (nM), cAMP assay [7] | other results |
| --- | --- | --- | --- | --- | --- | --- | --- | --- | --- | --- | --- |
| CSCC[C@H](NC(=O)[C@H](Cc1ccc(O)cc1)NC(=O)[C@H](CC(=O)O)NC(=O)[C@H](CC(C)C)NC(=O)[C@H](CC(C)C)NC(=O)[C@H](CCCCNC(=O)COCCOCCNC(=O)COCCOCCNC(=O)CC[C@H](NC(=O)CCCCCCCCCCCCCCCCC(=O)O)C(=O)O)NC(=O)[C@H](CO)NC(=O)[C@H](Cc1ccc(O)cc1)NC(=O)[C@H](CC(=O)O)NC(=O)[C@H](CO)NC(=O)[C@@H](NC(=O)[C@H](Cc1ccccc1)NC(=O)[C@@H](NC(=O)CNC(=O)[C@H](CCC(N)=O)NC(=O)C(C)(C)NC(=O)[C@@H](N)Cc1ccc(O)cc1)[C@@H](C)O)[C@@H](C)O)C(=O)N[C@@H](CCSC)C(=O)N[C@@H](CCC(N)=O)C(=O)N[C@@H](CCCNC(=N)N)C(=O)N[C@@H](CC(=O)O)C(=O)N[C@@H](Cc1ccccc1)C(=O)N[C@H](C(=O)N[C@@H](CCCCNC(=O)CCCC[C@@H]1SC[C@@H]2NC(=O)N[C@@H]21)C(=O)N[C@@H](Cc1c[nH]c2ccccc12)C(=O)N[C@@H](CC(C)C)C(=O)N[C@@H](CC(C)C)C(=O)N[C@@H](CCC(=O)O)C(=O)NCC(=O)NCC(=O)N1CCC[C@H]1C(=O)N[C@@H](CO)C(=O)N[C@@H](CO)C(=O)NCC(=O)N[C@@H](C)C(=O)N1CCC[C@H]1C(=O)N1CCC[C@H]1C(=O)N1CCC[C@H]1C(=O)N[C@@H](CO)C(N)=O)C(C)C [compound 89] (H-Y[Aib]QGTFTSDYSK([AEEA-AEEA-γGlu-C18 diacid])LLDYMMQRDFVK(Biotin)WLLEGGPSSGAPPPS-NH2; N-terminus and C-terminus assumed) | comparable to SEQ ID NO. 77 | 117 | 45% | 399 | 154% | 100 | 38% | – | – | – | intestinal stability in FaSSIF/P compared with SEQ ID NO. 77, in words (FaSSIF/P; Example 11): not inferior to that of SEQ ID No. 77; half-life ([1]; pH 6.5, Table 33, peptide:pancreatin weight ratio 25:1, FaSSIF pH 6.5, 37° C., read-out: Half-life): 0.717 h; hepatic steatosis (histological score), in words [3]: significantly reduced; AUC(0-inf) ([4]; rats, single intraduodenal (ID) administration, read-out: AUCinf): 2790 ng·h/mL; Cmax ([4]; rats, single intraduodenal (ID) administration, read-out: mean Cmax): 332 ng/mL; half-life ([4]; rats, single intraduodenal (ID) administration, read-out: t1/2 (converted)): 7.24 h |
| CSCC[C@H](NC(=O)[C@H](Cc1ccc(O)cc1)NC(=O)[C@H](CC(=O)O)NC(=O)[C@H](CC(C)C)NC(=O)[C@H](CC(C)C)NC(=O)[C@H](CCCCNC(=O)COCCOCCNC(=O)COCCOCCNC(=O)CC[C@H](NC(=O)CCCCCCCCCCCCCCCCC(=O)O)C(=O)O)NC(=O)[C@H](CO)NC(=O)[C@H](Cc1ccc(O)cc1)NC(=O)[C@H](CC(=O)O)NC(=O)[C@H](CO)NC(=O)[C@@H](NC(=O)[C@H](Cc1ccccc1)NC(=O)[C@@H](NC(=O)CNC(=O)[C@H](CCC(N)=O)NC(=O)C(C)(C)NC(=O)[C@@H](N)Cc1ccc(O)cc1)[C@@H](C)O)[C@@H](C)O)C(=O)N[C@@H](CCSC)C(=O)N[C@@H](CCC(N)=O)C(=O)N[C@@H](CCCNC(=N)N)C(=O)N[C@@H](CC(=O)O)C(=O)N[C@@H](Cc1ccccc1)C(=O)N[C@H](C(=O)N[C@@H](CCC(N)=O)C(=O)N[C@@H](Cc1c[nH]c2ccccc12)C(=O)N[C@@H](CC(C)C)C(=O)N[C@@H](CC(C)C)C(=O)N[C@@H](CCC(=O)O)C(=O)NCC(=O)NCC(=O)N1CCC[C@H]1C(=O)N[C@@H](CO)C(=O)N[C@@H](CO)C(=O)NCC(=O)N[C@@H](C)C(=O)N1CCC[C@H]1C(=O)N1CCC[C@H]1C(=O)N1CCC[C@H]1C(=O)N[C@@H](CO)C(=O)N[C@@H](CCCCNC(=O)CCCC[C@@H]1SC[C@@H]2NC(=O)N[C@@H]21)C(N)=O)C(C)C [compound 90] (H-Y[Aib]QGTFTSDYSK([AEEA-AEEA-γGlu-C18 diacid])LLDYMMQRDFVQWLLEGGPSSGAPPPSK(Biotin)-NH2; N-terminus and C-terminus assumed) | comparable to SEQ ID NO. 77 | 39 | 19% | 311 | 154% | 100 | 50% | – | – | – | intestinal stability in FaSSIF/P compared with SEQ ID NO. 77, in words (FaSSIF/P): not inferior to that of SEQ ID No. 77; half-life ([1]; pH 6.5, Half-life (min)): 0.702 h; AUC(0-inf) [4]: 2490 ng·h/mL; Cmax [4]: 282 ng/mL; half-life [4]: 8.37 h; time at which Cmax was reached [4]: 0.30 h |
| B1 | – | – | – | – | – | – | – | 24.2 nM | 3.23 nM | 0.0772 nM | – |
| B2 | – | – | – | – | – | – | – | 140 nM | 9.29 nM | 0.187 nM | EC50 (nM), cAMP assay [8]: 157 nM; EC50 (nM), cAMP assay [9]: 1.71 nM; EC50 (nM), cAMP assay [10]: 0.0967 nM |
| B3 | – | – | – | – | – | – | – | 97.2 nM | 15.1 nM | 0.18 nM | – |
